Reference: US20030186355A1, “Methods for selecting and producing t cell peptide epitopes and vaccines incorporating said selected epitopes” (priority 2000, published 2003)
Like-named read-outs stand apart in the source and are kept apart here.

Assays:
TAP [1] = settings: previous study, Neisig et al., 1995; cited from earlier work
TAP [2] = assay: TAP translocation of peptides into the endoplasmic reticulum; assay type: biochemical
T2 cells = assay: 51Cr cytotoxicity assay with peptide pulsed targets; assay type: cell-based, human; settings: targets pulsed at high peptide concentrations
Procedure: CTL activity was measured in a standard chromium release assay. Briefly, after ^51Cr labeling, target cells were pulsed with the designated peptide concentrations for 30 min or longer at 37° C. Target cells were added to various number of effector cells in a final volume of 100 μl complete culture medium in 96-well-U-bottom plates. After 4 h incubation at 37° C. supernatants were harvested.

Sequence | translocation by TAP into the ER (TAP [1]) | translocation by TAP into the ER (TAP [2]) | also measured
FAPGNYPAL | not efficiently translocated |  | 
FNKSPWFTTL [proteasome fragment of MCF substrate, 10-mer] |  | efficiently translocated | 
FNKSPWFTTLI [proteasome fragment of MCF substrate, 11-mer] |  | efficiently translocated | 
GEFAPGNYPAL [proteasome fragment of Sendai substrate, N-terminally elongated 11-mer] | most efficiently translocated length variant |  | 
KSPWFTTL | not translocated by TAP at all |  | 
LYVDSLFFL [PRAME aa; 301-309, naturally presented in HLA-A24] |  |  | lysis of peptide pulsed targets by CTL clones (T2 cells): very low crossreactivity
PSSSWDFITVD [peptide fragment said to be generated by FBL-3 cells] |  | completely abolishes TAP translocation | 
